Literature values as cited in US11377445B2, “Derivatives of paliperidone and process for the preparation thereof” (Zenvision Pharma LLP, priority 2018, dated 2022).

Row | SMILES | solubility in 0.1N HCl (0.1N HCl) | solubility in 0.1N NaOH (0.1N NaOH) | solubility in N, N-dimethylformamide (N, N-dimethylformamide) | solubility in hexane (hexane) | solubility in methylene chloride (methylene chloride) | solubility in water (water) | solubility in ethanol (ethanol) | solubility in ethyl acetate (ethyl acetate) | solubility in methanol (methanol) | solubility in polyethylene glycol 400 (polyethylene glycol 400) | solubility in propylene glycol (propylene glycol)
1 | Cc1nc2n(c(=O)c1CCN1CCC(c3noc4cc(F)ccc34)CC1)CCCC2O (racemic) [Paliperidone, (±)-3-[2-[4-(6-fluoro-1,2-benzisoxazol-3-yl)-1-piperidinyl]ethyl]-6,7,8,9-tetrahydro-9-hydroxy-2-methyl-4Hpyrido[1,2-a]pyrimidin-4-one] | sparingly soluble | practically insoluble | slightly soluble | practically insoluble | sparingly soluble | practically insoluble |  |  |  |  | 
2 | CCCCCCCCCCCCCCCC(=O)OC1CCCn2c1nc(C)c(CCN1CCC(c3noc4cc(F)ccc34)CC1)c2=O (centres unmarked) [Paliperidone palmitate] |  |  |  |  |  |  | very slightly soluble | slightly soluble | very slightly soluble | practically insoluble | practically insoluble
